Results from patent US20220296536A1, “PAIN MANAGEMENT METHODOLOGY” (priority 2019, published 2022).
Where two headings read alike, the source gives them in different places.

Columns and labels:
pain in a patient [1] = assay: earlier pharmaceutical treatment of Patient A's pain; format: in vivo, human; details: terminal prostate cancer, before use of the method
Description: Patient A was a person having terminal prostate cancer. Patient A was suffering a high level of pain, for which pharmaceutical treatment, even morphine, had become ineffective.

pain in a patient [2] = tested on: pain in a patient
Method: In each of the examples, below, the method of the invention was used: the patient was aurally isolated in a quiet room, being the waiting room or vestibule to an operating theatre with only the deliverer present during the aural isolation period. The patient was exposed to the repetitive, positive message delivered orally by the deliverer. The chosen period was between 20 and 30 minutes. The deliverer repeated the message constantly during the chosen period. The message was: ‘When I wake up, I will have no pain’.
At the conclusion of the chosen period, the patient was administered propofol and became unconscious.

[3] = Example 5, Patient B, hip replacement

Row | SMILES | effect of pharmaceutical treatment on high level of pain (pain in a patient [1]) | pain after surgery (pain in a patient [2]; Example 1, Patient A, terminal prostate cancer, surgery for incontinence problem, from regaining consciousness until three weeks later) | pain (pain in a patient [2]; Example 2, Patient B, bleeding on the brain, skull drilled to drain blood) | pain post-surgery (pain in a patient [2]; Example 3, Patient B, cataract surgery) | post-operative pain (pain in a patient [2]; Example 4, Patient B, radical endoscopic sinus surgery) | pain post-surgery (pain in a patient [2]; [3]) | recovery (pain in a patient [2]; [3]) | time to being ambulatory (pain in a patient [2]; Example 5, Patient B, hip replacement, 7 days bed rest normally expected) | pain after surgery (pain in a patient [2]; Example 6, Patient B, painful infection within left shoulder, surgery) | pain post-surgery (pain in a patient [2]; Example 7, Patient B, osteomyelitis in right hip, stripping of veins and skin graft) | pain post-surgery (pain in a patient [2]; Example 8, Patient B, open-heart surgery to replace aortic valve, three surgeries) | pain post-surgery (pain in a patient [2]; Example 9, Patient C, hip replacement) | pain post-surgery (pain in a patient [2]; Example 10, Patient D, radical hysterectomy) | need for pharmaceutical pain relief after use of the method (pain in a patient [2]; all patients of Examples 1-10, propofol given after 20-30 min aural isolation with message) | recovery from surgery (pain in a patient [2]; all patients of the examples, when surgery was used)
1 | CN1CC[C@]23c4c5ccc(O)c4O[C@H]2[C@@H](O)C=C[C@H]3[C@H]1C5 [morphine] | ineffective | – | – | – | – | – | – | – | – | – | – | – | – | – | –
2 | CC(C)c1cccc(C(C)C)c1O [propofol, 2,6-diisopropylphenol] | – | free of pain | experienced no pain | experienced no pain post-surgery | experienced no post-operative pain | no pain post-surgery | accelerated recovery | ambulatory within one hour | pain-free | no pain post-surgery | no pain post-surgery each time | no pain post-surgery | experienced no pain post-surgery | None of the patients in the examples below required pharmaceutical pain relief | All experienced accelerated recovery from surgery
